≈ marks a conversion by molar mass, not a printed value. Entries after “also recorded” stand apart in the source; their conditions may differ.
Legend:
[1] = test system: Paracoccidioides brasiliensis S1 isolate 18 (Pb18); experiment: MIC by microdilution (CLSI M27-A3 modified, alamar blue), Pb18; format: cell-based; conditions: read-out: Pb18 MIC
Protocol: (§1) Paracoccidioides brasiliensis S1 isolate 18 (Pb18-chronic PCM/São Paulo, Brazil), P. brasiliensis S2 (02-chronic PCM/Venezuela), and P. lutzii Pb01-strain ATCC MYA-826 (acute PCM/Goiânia, Brazil) were obtained from the mycology collection of the Mycology Laboratory, School of Pharmaceutical Sciences and were maintained in Fava-Netto agar medium at 37°C.
(§2) The MIC assay was performed according to the microdilution method described by Clinical and Laboratory Standards Institute ([CLSI, 2008]) document M27-A3 with modifications ([de Paula e Silva et al., 2013]). Alkyl derivatives of protocatechuic acid (hexyl, heptyl, octyl, nonyl, decyl, and dodecyl protocatechuates) were diluted according to CLSI M27-S3. The yeast suspension was adjusted to a final concentration of 1.5 × 10^3 CFU/mL in RPMI-1640 medium (Sigma–Aldrich, St. Louis, MO, United States) in 96-well plates and serial dilutions (from 250 to 0.24 μg/mL) of the compounds were then added; AMB and ITC were used as controls. The plates were incubated on a shaker at 37°C/150 rpm for a specific duration individually determined for each microorganism. The MIC was determined using alamar blue (Sigma–Aldrich, St. Louis, MO, United States) at 530 and 570 nm; a change from the original blue color of the reagent to pink […]. Following 72 or 96 h of incubation. The Minimum Fungicide Concentration (MFC) was determined by transferring an aliquot from the wells to Brain Heart Infusion (BHI) medium supplemented with 2% glucose (Difco, BD Biosciences) plates, which were then incubated at 37°C for 5–7 days. The MFC was defined as the concentration that inhibited growth ([Soares et al., 2014]).

[2] = test system: P. lutzii Pb01-strain ATCC MYA-826; experiment: MIC by microdilution (CLSI M27-A3 modified, alamar blue), Pb01; format: cell-based; conditions: Paracoccidioides lutzii, read-out: Pb01 MIC
Protocol: as §1, §2

[3] = test system: P. brasiliensis S2 (02) (Pb02); experiment: MIC by microdilution (CLSI M27-A3 modified, alamar blue), Pb02; format: cell-based; conditions: Paracoccidioides brasiliensis, read-out: Pb02 MIC, P. brasiliensis Pb02
Protocol: as §1, §2

[4] = Cytotoxicity assay, 0.4% sulforhodamine B, MRC5; format: cell-based; conditions: human, MRC5 cells; for IC50 at 24 h: 24 h treatment, SRB; for viability at 24 h: at MIC, read-out: cell viability at the MIC values
Protocol: The cytotoxicity of the protocatechuates was assessed in the MRC5 cell line (MRC5) obtained from the American Type Culture Collection (ATCC; Manassas, VA, United States) and HepG2 cell line obtained from the Biotechnology Laboratory Biotech (UNICAMP, Brazil). The plates were first incubated with 1 × 10^5 cells per well at 36.5°C under 5% CO2 for 24 h to form a cell monolayer ([Husøy et al., 1993]). Compounds were tested at different concentrations ranging from 0.12 to 62.5 μg/mL using serial dilutions in a total volume of 100 μL per well. After the 24 h treatment the cytotoxicity was assessed by the 0.4% sulforhodamine B (SRB) ([Vichai and Kirtikara, 2006]). The assay is sensitive and measures the cellular protein content of adherent or suspension cultures in 96-well plates. Cells were fixed with trichloroacetic acid (TCA) and then stained for 30 min with SRB dissolved in acetic acid. In mildly acidic conditions, SRB binds on basic amino acid residues on TCA-fixed cells. The unbound dye is then removed after washing and the dye bound to the protein is solubilized in basic medium (Tris-base). The absorbance was measured at 570 nm. The result of the percentage of viable cells was performed using the following formula: according to [Rajpoot et al. (2012)] with minor modification.
Viable cells % = (test mean - hite mean/mean negative control - mean white) × 100

[5] = test system: P. brasiliensis (Pb18) adhesion to fibronectin matrix; experiment: Inhibition of P. brasiliensis 18 adhesion to artificial ECM: fibronectin; format: cell-based, Paracoccidioides brasiliensis; conditions: Pb18, 3 h adhesion, 24 h treatment
Protocol: (§3) Initially, 24-well plates were coated with ECM of fibronectin and laminin, respectively (Sigma–Aldrich, St. Louis, MO, United States) at a concentration of 50 μg/mL for 18 h at 4°C followed by incubation for 1 h at 37°C. The plates were then washed three times with PBS and fungal suspension was added at a concentration of 1.5 × 10^3 CFU/mL, which had been inoculated into the 24-well plate previously sensitized with ECM and incubated at 37°C for 1, 3, or 5 h. Subsequently, the supernatant was removed, the plate was washed with PBS, and then 300 μL of trypsin was added (Sigma). The supernatant was obtained and then centrifuged at 10,000 rpm for 5 min at (4°C). The new supernatant was discarded and 500 μL of FACS buffer was added for subsequent cell counting by flow cytometry (BD FACS Canto and BD FACS Diva software analysis). Following the adhesion period, treatment with the selected compound (dodecyl and NLS+dodecyl) was performed for 24 h at 37°C. RPMI-1640 with L-glutamine and 2% glucose was used to maintain adequate nutritional status. Subsequently, the supernatant was removed and the plate was washed with PBS. Then, 300 μL of trypsin was added and centrifuged. The supernatant was discarded and 500 μL of FACS buffer was added to each tube for subsequent cell counting by flow cytometry (BD FACS Canto and BD FACS Diva software analysis).

[6] = test system: P. brasiliensis (Pb18) adhesion to laminin matrix; experiment: Inhibition of P. brasiliensis 18 adhesion to artificial ECM: laminin; format: cell-based, Paracoccidioides brasiliensis; conditions: Pb18, 3 h adhesion, 24 h treatment
Protocol: as §3

[7] = test system: P. brasiliensis (Pb 18) adhesion to cell line MRC5; experiment: Inhibition of P. brasiliensis 18 adhesion to cells (MRC5), flow cytometry; format: cell-based, Paracoccidioides brasiliensis; conditions: Pb18 on MRC5, 3 h adhesion, 24 h treatment
Protocol: Cells (MRC5) were cultured at 36.5°C in 24-well plates and adjusted to 1 × 10^5 cells per well. A P. brasiliensis suspension (1.5 × 10^3 CFU/mL) was labeled with 10 μM of 5(6)-carboxyfluorescein diacetate N-succinimidyl ester (CFSE; Sigma–Aldrich) and then added to the cells. The plate was incubated for 3 h at 36.5°C under 5% CO2 to enable the adhesion process. Subsequent to treatment, dodecyl and NLS+dodecyl were applied and the plate was incubated for 24 h under the same conditions. The supernatant was removed and the plate was washed with PBS. Then, 300 μL of trypsin (Sigma–Aldrich,) was added and centrifuged. The supernatant was discarded and 500 μL of FACS buffer was added to each tube, for subsequent cell counting by flow cytometry (BD FACS Canto) and BD FACS Diva software analysis ([Mendes-Giannini et al., 1994], [2004]; [Hanna et al., 2000]).

[8] = test system: Caenorhabditis elegans wild-type strain N2; experiment: Toxicity assay in C. elegans model; format: in vivo; conditions: 24 h; for toxic effect on C. elegans survival: 0.03 to 125 μg/mL
Protocol: Caenorhabditis elegans wild-type strain N2 was routinely cultured at 22°C on nematode growth medium (NGM) plates seeded with E. coli strain OP50. For the toxicity assay, eggs were harvested to obtain synchronous cultures. After 3 days, worms in the L4 stage were washed with M9 buffer. Then, approximately 20 worms were transferred to each well of a 96-wells plate containing 100 μL of 60% M9 buffer, 40% BHI, 10 μg/mL cholesterol (in ethanol), 200 μg/mL ampicillin, and 90 μg/mL kanamycin. Next, 100 μL of dodecyl protocatechuate, NLS, or NLS+dodecyl were added to the medium with final compound concentrations in each well ranging from 0.03 to 125 μg/mL. The plate was incubated at 22°C for 24 h. Worm survival was evaluated based on mobility and form (worms with a stick shape were considered dead and worms with a sinusoidal shape were considered alive). Images were acquired using an IN Cell Analyzer 2000 (GE Healthcare), microscope (10×).

SMILES | MIC [1] [µg/mL] | MIC [2] [µg/mL] | MIC [3] [µg/mL] | IC50 at 24 h [4] [µg/mL] | viability at 24 h [4] [%] | inhibition of adhesion to the fibronectin matrix [5] [%] | inhibition of adhesion to the laminin matrix [6] [%] | inhibition of adhesion to cells [7] [%] | Survival percentage of C. elegans worms ([8]; 0.03 μg/mL) [%] | Survival percentage of C. elegans worms ([8]; 0.48 μg/mL) [%] | Survival percentage of C. elegans worms ([8]; 7.80 μg/mL) [%] | Survival percentage of C. elegans worms ([8]; 15.60 μg/mL) [%] | Survival percentage of C. elegans worms ([8]; 62.50 μg/mL) [%] | Survival percentage of C. elegans worms ([8]; 125.00 μg/mL) [%] | toxic effect on C. elegans survival [8] | toxic effect on C. elegans survival ([8]; listed as free dodecyl protocatechuate)
CCC(C)n1ncn(-c2ccc(N3CCN(c4ccc(OCC5COC(Cn6cncn6)(c6ccc(Cl)cc6Cl)O5)cc4)CC3)cc2)c1=O (stereo not drawn) [ITC, itraconazole, reference compound] | 0.02 (≈ 0.0283 µM) | 0.12 (≈ 0.17 µM) | 0.01 (≈ 0.0142 µM) | 0.1 (≈ 0.142 µM) |  |  |  |  |  |  |  |  |  |  |  | 
C[C@@H]1[C@H](O)[C@@H](C)/C=C/C=C/C=C/C=C/C=C/C=C/C=C/[C@H](O[C@@H]2O[C@H](C)[C@@H](O)[C@H](N)[C@@H]2O)C[C@@H]2O[C@](O)(C[C@@H](O)C[C@@H](O)[C@H](O)CC[C@@H](O)C[C@@H](O)CC(=O)O[C@H]1C)C[C@H](O)[C@H]2C(=O)O [AMB, Amphotericin B, reference compound] | 0.13 (≈ 0.141 µM) | 0.06 (≈ 0.0649 µM) |  | 0.22 (≈ 0.238 µM) |  |  |  |  |  |  |  |  |  |  |  | 
CCCCCCCOC(=O)c1ccc(O)c(O)c1 [heptyl, heptyl protocatechuate] | 7.8 (≈ 30.9 µM) | 3.9 (≈ 15.5 µM) | 0.24 (≈ 0.951 µM) | 17.6 (≈ 69.8 µM) | 65 |  |  |  |  |  |  |  |  |  |  | 
CCCCCCCCOC(=O)c1ccc(O)c(O)c1 [octyl, octyl protocatechuate] | 0.97 (≈ 3.64 µM) | 0.97 (≈ 3.64 µM) | 1.9 (≈ 7.13 µM) | 33.7 (≈ 127 µM) | 98 |  |  |  |  |  |  |  |  |  |  | 
CCCCCCCCCOC(=O)c1ccc(O)c(O)c1 [nonyl, nonyl protocatechuate] | 1.9 (≈ 6.78 µM) | 0.97 (≈ 3.46 µM) | 0.48 (≈ 1.71 µM) | 17.7 (≈ 63.1 µM) | 96 |  |  |  |  |  |  |  |  |  |  | 
CCCCCCOC(=O)c1ccc(O)c(O)c1 [hexyl, hexyl protocatechuate] | 3.9 (≈ 16.4 µM) | 7.8 (≈ 32.7 µM) | 1.9 (≈ 7.97 µM) | 29.5 (≈ 124 µM) | 99 |  |  |  |  |  |  |  |  |  |  | 
CCCCCCCCCCOC(=O)c1ccc(O)c(O)c1 [decyl, decyl protocatechuate] | 0.97 (≈ 3.29 µM) | 1.9 (≈ 6.45 µM) | 0.48 (≈ 1.63 µM) | 16 (≈ 54.3 µM) | 98 |  |  |  |  |  |  |  |  |  |  | 
CCCCCCCCCCCCOC(=O)c1ccc(O)c(O)c1 [dodecyl, Dodecyl protocatechuate] | 0.48 (≈ 1.49 µM) | 0.48 (≈ 1.49 µM) | 0.24 (≈ 0.744 µM) | 17.9 (≈ 55.5 µM) | 98 | 64 | 75 | 65 | 100 | 100 | 100 | 100 | 100 | 100 | neither dodecyl nor NLS+dodecyl exhibited any toxic effects; also recorded: did not affect worm survival at any concentration | neither compound exhibited a toxic effect on survival

— PMC5466964, “Alkyl Protocatechuate-Loaded Nanostructured Lipid Systems as a Treatment Strategy for Paracoccidioides brasiliensis and Paracoccidioides lutzii In Vitro” (Frontiers in Microbiology, 2017)
